Results: article PMC10714400, “Antimicrobial Peptide–Peptoid Hybrids with and without Membrane Disruption” (ACS Infectious Diseases, 2023)
≈ marks a conversion by molar mass, not a printed value. Like-named read-outs stand apart in the source and are kept apart here. Where a SMILES comes first, the peptide text is derived from it. [ ]: non-standard residue; d: D form. Nleu = CC(C)CNCC(=O)O; Nlys = NCCCCNCC(=O)O

Key:
[1] = test system: human red blood cells (hRBC); experiment: Minimum hemolytic concentration (MHC); assay type: cell-based
From the text: We also measured minimal hemolysis concentrations (MHC) on human red blood cells by serial 2-fold dilution as an indication of toxicity against eukaryotic cells (Table 1).

P. aeruginosa PAO1 = test system: P. aeruginosa PAO1
In short: (§1)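 MIC read visually after MTT staining: lowest compound concentration preventing visible growth (yellow wells). Inoculum ~5 × 10^5 CFU per well in MH broth; static incubation at 37 °C for ca. 18 h.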

K. pneumoniae OXA-48 = test system: K. pneumoniae OXA-48
In short: as §1

PA14 2P4 (pmrB) = test system: PA14 2P4 (pmrB)
In short: as §1

PA14 4.18 (pmrB) = test system: PA14 4.18 (pmrB)
In short: as §1

PA14 4.13 (phoQ) = test system: PA14 4.13 (phoQ)
In short: as §1

E. coli W3110 = test system: E. coli W3110
In short: as §1

A. baumannii ATCC19606 = test system: A. baumannii ATCC19606
In short: (§2)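 MTT added (20–30 min, room temperature); MIC read by eye as lowest concentration inhibiting visible growth (yellow). Polymyxin B positive control from 16 μg/mL.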

K. pneumoniae NCTC418 = test system: K. pneumoniae NCTC418
In short: as §2

S. aureus COL (MRSA) = test system: S. aureus COL (MRSA)
In short: as §1

[2] = test system: ZEM9A (clinical MDR P. aeruginosa isolate)
In short: as §1

[3] = test system: ZEM-1A (clinical MDR P. aeruginosa isolate)
In short: as §1

E. cloacae = details: pH 7.4
In short: as §1

P. aeruginosa PA14 = test system: P. aeruginosa PA14
In short: as §1

B. cenocepacia = details: pH 7.4
In short: as §1

S. epidermis = details: pH 7.4
In short: as §1

S. aureus Newman = details: Newman
In short: as §1

S. maltophilia = details: pH 7.4
In short: as §1

## CC(C)C[C@H](NC(=O)[C@H](CCCCN)NC(=O)CNCCCCN)C(=O)N[C@@H](CC(C)C)C(=O)N[C@@H](CCCCN)C(=O)N[C@@H](CC(C)C)C(=O)N[C@@H](CC(C)C)C(=O)N[C@@H](CCCCN)C(=O)N[C@@H](CC(C)C)C(=O)N[C@@H](CC(C)C)C(=O)N(CC(N)=O)CC(C)C [EB1] (H-[Nlys]KLLKLLKLL[Nleu]-NH2; N-terminus assumed)
[1]
  MHC: 1000 µg/mL
[1]; red cells of human
  MHC (hemolysis): 250 to 1000 µg/mL
P. aeruginosa PAO1; PAO1, 4 h, pH 7.4
  MIC P. aeruginosa PAO1, full MH at pH 7.4: 4 ug/mL
P. aeruginosa PAO1; Table S2, […] MH, pH 7.4
  MIC P. aeruginosa PAO1 […] 7.4: 2 µg/mL (≈ 1.51 µM)
P. aeruginosa PAO1; Table S2, […] MH, pH 8.5
  MIC P. aeruginosa PAO1 […] 8.5: 2 µg/mL (≈ 1.51 µM)
P. aeruginosa PAO1; Table S2, full MH, pH 7.4
  MIC P. aeruginosa PAO1 Full MH 7.4: 4 µg/mL (≈ 3.03 µM)
P. aeruginosa PAO1; Table S2, full MH, pH 8.5
  MIC P. aeruginosa PAO1 Full MH 8.5: 16 µg/mL (≈ 12.1 µM)
K. pneumoniae OXA-48; CSV, full MH at pH 7.4
  MIC K. pneumoniae OXA-48, full MH at pH 7.4: 12 ug/mL
K. pneumoniae OXA-48; MH pH 7.4, 16–20 h at 37 °C
  MIC K. pneumoniae OXA-48: 8 to 16 µg/mL
PA14 2P4 (pmrB); CSV, […] MH at pH 8.5
  MIC P. aeruginosa PA14 2P4, […] MH at pH 8.5: 2 ug/mL
PA14 2P4 (pmrB); CSV, full MH at pH 7.4
  MIC P. aeruginosa PA14 2P4, full MH at pH 7.4: 32 ug/mL
PA14 2P4 (pmrB); MH pH 7.4, 16–20 h at 37 °C
  MIC PA14 2P4 (pmrB): 32 µg/mL (≈ 24.2 µM)
PA14 2P4 (pmrB); Table S3, […] MH at pH 8.5
  MIC P. aeruginosa PA14 2P4: 2 µg/mL (≈ 1.51 µM)
PA14 4.18 (pmrB); CSV, […] MH at pH 8.5
  MIC P. aeruginosa PA14 4.18, […] MH at pH 8.5: 2 ug/mL
PA14 4.18 (pmrB); CSV, full MH at pH 7.4
  MIC P. aeruginosa PA14 4.18, full MH at pH 7.4: 32 ug/mL
PA14 4.18 (pmrB); MH pH 7.4, 16–20 h at 37 °C
  MIC PA14 4.18 (pmrB): 32 µg/mL (≈ 24.2 µM)
PA14 4.18 (pmrB); Table S3, […] MH at pH 8.5
  MIC P. aeruginosa PA14 4.18: 2 µg/mL (≈ 1.51 µM)
PA14 4.13 (phoQ); CSV, […] MH at pH 8.5
  MIC P. aeruginosa PA14 4.13, […] MH at pH 8.5: 2 ug/mL
PA14 4.13 (phoQ); CSV, full MH at pH 7.4
  MIC P. aeruginosa PA14 4.13, full MH at pH 7.4: 8 ug/mL
PA14 4.13 (phoQ); MH pH 7.4, 16–20 h at 37 °C
  MIC PA14 4.13 (phoQ): 8 µg/mL (≈ 6.05 µM)
PA14 4.13 (phoQ); Table S3, […] MH at pH 8.5
  MIC P. aeruginosa PA14 4.13: 2 µg/mL (≈ 1.51 µM)
E. coli W3110; CSV, […] MH at pH 7.4
  MIC E. coli W3110, […] MH at pH 7.4: 2 ug/mL
E. coli W3110; CSV, full MH at pH 7.4
  MIC E. coli W3110, full MH at pH 7.4: 2 ug/mL
E. coli W3110; Table S2, […] MH, pH 7.4
  MIC E. coli W3110 […] 7.4: 2 µg/mL (≈ 1.51 µM)
E. coli W3110; Table S2, […] MH, pH 8.5
  MIC E. coli W3110 […] 8.5: 1 µg/mL (≈ 0.757 µM)
E. coli W3110; Table S2, full MH, pH 7.4
  MIC E. coli W3110 Full MH 7.4: 2 µg/mL (≈ 1.51 µM)
E. coli W3110; Table S2, full MH, pH 8.5
  MIC E. coli W3110 Full MH 8.5: 32 µg/mL (≈ 24.2 µM)
E. coli W3110; diluted MH ([…] MH, pH 8.5) per Table 1 footnote b, 16–20 h at 37 °C
  MIC E. coli W3110 […]: 2 µg/mL (≈ 1.51 µM)
A. baumannii ATCC19606; ATCC19606, 4 h, pH 7.4
  MIC A. baumannii ATCC19606, full MH at pH 7.4: 2 ug/mL
A. baumannii ATCC19606; Table S2, […] MH, pH 7.4
  MIC A. baumannii ATCC19606 […] 7.4: 2 µg/mL (≈ 1.51 µM)
A. baumannii ATCC19606; Table S2, full MH, pH 7.4
  MIC A. baumannii ATCC19606 Full MH 7.4: 2 µg/mL (≈ 1.51 µM)
A. baumannii ATCC19606; Table S2, full MH, pH 8.5
  MIC A. baumannii ATCC19606 Full MH 8.5: > 32 µg/mL
K. pneumoniae NCTC418; NCTC418, 4 h, pH 7.4
  MIC K. pneumoniae NCTC418, full MH at pH 7.4: 8 ug/mL
K. pneumoniae NCTC418; Table S2, […] MH, pH 7.4
  MIC K. pneumoniae NCTC418 […] 7.4: 2 µg/mL (≈ 1.51 µM)
K. pneumoniae NCTC418; Table S2, full MH, pH 7.4
  MIC K. pneumoniae NCTC418 Full MH 7.4: 8 µg/mL (≈ 6.05 µM)
K. pneumoniae NCTC418; Table S2, full MH, pH 8.5
  MIC K. pneumoniae NCTC418 Full MH 8.5: > 32 µg/mL
S. aureus COL (MRSA); COL, pH 7.4
  MIC S. aureus COL (MRSA) Full: 8 µg/mL (≈ 6.05 µM)
S. aureus COL (MRSA); Table S2, […] MH, pH 7.4
  MIC S. aureus COL (MRSA) […] 7.4: 2 µg/mL (≈ 1.51 µM)
S. aureus COL (MRSA); Table S2, […] MH, pH 8.5
  MIC S. aureus COL (MRSA) […] 8.5: 2 µg/mL (≈ 1.51 µM)
S. aureus COL (MRSA); Table S2, full MH, pH 7.4
  MIC S. aureus COL (MRSA) Full MH 7.4: 8/32
S. aureus COL (MRSA); Table S2, full MH, pH 8.5
  MIC S. aureus COL (MRSA) Full MH 8.5: 32 µg/mL (≈ 24.2 µM)
[2]; CSV, full MH at pH 7.4
  MIC P. aeruginosa ZEM9A, full MH at pH 7.4: 16 ug/mL
[2]; MH pH 7.4, 16–20 h at 37 °C
  MIC ZEM9A: 16 µg/mL (≈ 12.1 µM)
[3]; CSV, full MH at pH 7.4
  MIC P. aeruginosa ZEM-1A, full MH at pH 7.4: 3 ug/mL
[3]; MH pH 7.4, 16–20 h at 37 °C
  MIC ZEM-1A: 2 to 4 µg/mL
E. cloacae; 4 h
  MIC E. cloacae, full MH at pH 7.4: 8 ug/mL
E. cloacae
  MIC E. cloacae: 8 µg/mL (≈ 6.05 µM)
P. aeruginosa PA14; PA14, 4 h, pH 7.4
  MIC P. aeruginosa PA14, full MH at pH 7.4: 4 ug/mL
P. aeruginosa PA14; PA14, pH 7.4
  MIC P. aeruginosa PA14: 4 µg/mL (≈ 3.03 µM)
P. aeruginosa PA14; PA14, pH 8.5
  MIC P. aeruginosa PA14: 2 µg/mL (≈ 1.51 µM)
B. cenocepacia; 4 h
  MIC B. cenocepacia, full MH at pH 7.4: >32 ug/mL
B. cenocepacia
  MIC B. cenocepacia: >32 µg/mL
S. epidermis; 4 h
  MIC S. epidermis, full MH at pH 7.4: 6 ug/mL
S. epidermis
  MIC S. epidermis: 4 to 8 µg/mL
S. aureus Newman; 4 h, pH 7.4
  MIC S. aureus Newman, full MH at pH 7.4: 32 ug/mL
S. aureus Newman; 4 h, pH 8.5
  MIC S. aureus Newman: 2 µg/mL (≈ 1.51 µM)
S. aureus Newman; pH 7.4
  MIC S. aureus Newman: 32 µg/mL (≈ 24.2 µM)
S. maltophilia; 4 h
  MIC S. maltophilia, full MH at pH 7.4: 3 ug/mL
S. maltophilia
  MIC S. maltophilia: 2 to 4 µg/mL
